Values joined by “and” are separate entries in the source; they are usually repeats but may differ in a detail not shown here. Equal values may be shown once.
Test system: 3D7, SLI- and CR- WT, N309K, N330K parasites
Assay: Parasite growth over 72 h in the presence of GlcN (LDH)
Assay type: cell-based, Plasmodium falciparum
Conditions: for Growth over 72 h, 0.25 mM / 0 mM / Growth over 72 h, 2.5 mM / 0 mM: biological replicates 1-4; for Growth over 72 h (mean of raw readings) / Growth over 72 h normalised to 0 mM GlcN (= 100): biological replicates 1-3; for Growth over 72 h (raw reading): biological replicates 1-3, DMSO data of M833 and W991 sets
Experimental: thereafter called SLI-WT, SLI-N309K and SLI-N330K). gDNA was extracted and a PCR was conducted to check for correct integration using primers START_5’UTR.F and START_Seq.R (Table S2); the same PCR on 3D7 gDNA was used as a control, as no bands should be observed in the 3D7 samples. (B) The sequencing of the PCR […]
and that SLI-N309K and SLI-N330K contain the correct mutations. (C) Growth of 3D7, SLI-WT, -N309K or -N330K over 72 h in the presence of 0, 0.25 or 2.5 mM GlcN was measured with an LDH assay. Growth was normalised to the 0 mM GlcN condition. n=4 biological replicates. Ordinary one-way ANOVA with Dunnett’s multiple comparison test (comparison to the 0 mM condition). **: p<0.005. ***: p<0.0005. ****: p<0.0001. (D) Similar to SLI parasites, CRISPR transfectant parasites were cloned:
CR-WT clone D2, CR-N309K clone C10 and CR-N330K clone B2, thereafter called CR-WT, CR-N309K and CR-N330K. A PCR was conducted to check for correct integration using primers START_5’UTR.F and START_IntR1; 3D7 gDNA was used […]
wild-type version of pfstart1, and that CR-N309K and CR-N330K contain the correct mutations. (F) Growth of 3D7, CR-WT, -N309K or -N330K over 72 h in the presence of 0, 0.25 or 2.5 mM GlcN was measured by LDH assay (same as (C); n=6 biological replicates). Source data are provided as a Source Data file. […]
and compound 4. Note that M-833 was first purchased from MolPort (MolPort -002-267-916) then made in-house at WEHI: the differences observed in EC50s across experiments are attributed to the different batches of M -833. For some experiments, 0, 0.25 or 2.5 mM of glucosamine (GlcN) was also added. Experiments were set up in technical duplicates or triplicates. Following a freeze -thaw cycle, lactate dehydrogenase (LDH) activity was assessed as an indicator of parasite growt h 5. 30 μL of parasite culture was incubated for 30 min in the dark with 75 μL Malstat mixture (0.1 M Tris pH 9.0, 20 g/L lactic acid, pH 7.5, 0.2% Triton-X100, 0.5 g/L acetylpyridine adenine dinucleotide (APAD, Sigma), 200 μg/mL nitroblue tetrazolium (NBT; Sigma), 1 μg/mL phenozine ethosulfate (PES; Sigma)). Absorbance was then measured at 650 nm, transformed using the formula below, plotted against the logarithm of the concentrations, and a non-linear regression (log(inhibitor) vs. response, variable slope) was calculated using GraphPad Prism to assess the half-inhibitory […]
Growth inhibition % = (1 − average(sample)− average(uRBC)) ∗ 100 […]
The DMSO samples were also used to assess growth of parasite in the presence of 0.25 and 2.5 mM GlcN (normalised by DMSO in 0 mM GlcN). […]

[1] = CR-N309K parasites, 0.25 mM GlcN
[2] = CR-N309K parasites, 2.5 mM GlcN
[3] = CR-N330K parasites, 0.25 mM GlcN
[4] = CR-N330K parasites, 2.5 mM GlcN

With `N[C@H]1C(O)O[C@H](CO)[C@@H](O)[C@@H]1O` (some centres unmarked) [GlcN, glucosamine] the “Growth over 72 h, 0.25 mM / 0 mM” value (3D7, 0.25 mM GlcN) was 98.6386 and 100.075 and 99.6504 and 92.7264, the “Growth over 72 h, 2.5 mM / 0 mM” value (3D7, 2.5 mM GlcN) was 77.3282 and 91.4546 and 81.2488 and 87.4334 and the reduced growth (3D7, 2.5 mM GlcN, 72 h) was ~ 5%. For the same molecule, the “Growth over 72 h (mean of raw readings)” value (3D7 parasites, 0.25 mM GlcN) was 0.1623 and 0.1668 and 0.4453 and 0.6687 and 0.4936 and 0.5657, the “Growth over 72 h normalised to 0 mM GlcN (= 100)” value (“Growth over 72 h normalised” for short) (3D7 parasites, 0.25 mM GlcN) was 99.2357 and 96.4441 and 83.2336 and 124.534 and 89.0493 and 116.399 and the “Growth over 72 h (raw reading)” value (3D7 parasites, 0.25 mM GlcN) was 0.1683 and 0.1751 and 0.4506 and 0.6702 and 0.5044 and 0.558 and 0.1563 and 0.1585 and 0.44 and 0.6673 and 0.4828 and 0.5734. The “Growth over 72 h (mean of raw readings)” value (3D7 parasites, 2.5 mM GlcN) was 0.1303 and 0.133 and 0.3936 and 0.3428 and 0.669 and 0.5661, the “Growth over 72 h normalised” value (3D7 parasites, 2.5 mM GlcN) was 79.6393 and 76.9008 and 73.5607 and 61.8528 and 124.572 and 116.481 and the “Growth over 72 h (raw reading)” value (3D7 parasites, 2.5 mM GlcN) was 0.137 and 0.138 and 0.4268 and 0.3683 and 0.6835 and 0.563 and 0.1235 and 0.128 and 0.3603 and 0.3174 and 0.6544 and 0.5692. For the same molecule, the “Growth over 72 h (mean of raw readings)” value [1] was 0.127 and 0.1406 and 0.5399 and 0.6825 and 0.5806 and 0.5768, the “Growth over 72 h normalised” value [1] was 83.6627 and 84.6177 and 96.1271 and 111.164 and 88.2706 and 96.8194 and the “Growth over 72 h (raw reading)” value [1] was 0.13 and 0.1405 and 0.5297 and 0.694 and 0.5709 and 0.5788 and 0.124 and 0.1406 and 0.55 and 0.6711 and 0.5903 and 0.5749. The “Growth over 72 h (mean of raw readings)” value [2] was 0.0842 and 0.08195 and 0.3029 and 0.2482 and 0.3611 and 0.3044, the “Growth over 72 h normalised” value [2] was 55.4677 and 49.3377 and 53.9263 and 37.7271 and 58.8111 and 51.0826 and the “Growth over 72 h (raw reading)” value [2] was 0.0834 (2×) and 0.3049 and 0.2428 and 0.3713 and 0.3087 and 0.085 and 0.0805 and 0.3008 and 0.2535 and 0.3509 and 0.3. The “growth less than in the absence of GlcN” value (CR-N309K, 2.5 mM GlcN, 72 h) was 50%, the “Growth over 72 h (mean of raw readings)” value [3] was 0.2349 and 0.2489 and 0.3654 and 0.7776 and 0.3572 and 0.7298 and the “Growth over 72 h normalised” value [3] was 94.757 and 83.1329 and 83.9922 and 102.755 and 71.8539 and 97.5734. For the same molecule, the “Growth over 72 h (raw reading)” value [3] was 0.2498 and 0.2614 and 0.3895 and 0.7636 and 0.4102 and 0.7252 and 0.2201 and 0.2364 and 0.3414 and 0.7917 and 0.3041 and 0.7344, the “Growth over 72 h (mean of raw readings)” value [4] was 0.1315 and 0.1328 and 0.1893 and 0.172 and 0.7048 and 0.6593 and the “Growth over 72 h normalised” value [4] was 53.0349 and 44.3554 and 43.5072 and 34.6042 and 93.1356 and 88.1543. The “Growth over 72 h (raw reading)” value [4] was 0.1385 and 0.1375 and 0.1953 and 0.1767 and 0.7177 and 0.6721 and 0.1245 and 0.1281 and 0.1833 and 0.1673 and 0.692 and 0.6466, the “Growth over 72 h (mean of raw readings)” value (CR-WT parasites, 0.25 mM GlcN) was 0.2131 and 0.2403 and 0.4884 and 0.5805 and 0.5445 and 0.4768 and the “Growth over 72 h normalised” value (CR-WT parasites, 0.25 mM GlcN) was 94.7322 and 91.6651 and 102.262 and 415.2 and 101.567 and 345.382. For the same molecule, the “Growth over 72 h (raw reading)” value (CR-WT parasites, 0.25 mM GlcN) was 0.2167 and 0.241 and 0.4948 and 0.5777 and 0.5446 and 0.4838 and 0.2095 and 0.2396 and 0.4819 and 0.5832 and 0.5444 and 0.4698, the “Growth over 72 h (mean of raw readings)” value (CR-WT parasites, 2.5 mM GlcN) was 0.1497 and 0.1625 and 0.3987 and 0.36 and 0.5094 and 0.4461 and the “Growth over 72 h normalised” value (CR-WT parasites, 2.5 mM GlcN) was 66.5703 and 61.9874 and 83.4991 and 67.1517 and 364.413 and 323.18. The “Growth over 72 h (raw reading)” value (CR-WT parasites, 2.5 mM GlcN) was 0.1508 and 0.1623 and 0.3842 and 0.3527 and 0.5062 and 0.4479 and 0.1487 and 0.1627 and 0.4133 and 0.3673 and 0.5127 and 0.4444, the “Growth over 72 h, 0.25 mM / 0 mM” value (SLI-N309K, 0.25 mM GlcN) was 84.2717 and 93.806 and 99.7943 and 79.4202 and the “Growth over 72 h, 2.5 mM / 0 mM” value (SLI-N309K, 2.5 mM GlcN) was 52.5042 and 74.3497 and 80.6954 and 57.9574. The “Growth over 72 h, 0.25 mM / 0 mM” value (SLI-N330K, 0.25 mM GlcN) was 88.793 and 84.0431 and 73.2682 and 86.1624, the “Growth over 72 h, 2.5 mM / 0 mM” value (SLI-N330K, 2.5 mM GlcN) was 52.5716 and 59.0221 and 51.4095 and 62.9405 and the “Growth over 72 h, 0.25 mM / 0 mM” value (SLI-WT, 0.25 mM GlcN) was 108.267 and 89.5536 and 80.5452 and 87.3943. The “Growth over 72 h, 2.5 mM / 0 mM” value (SLI-WT, 2.5 mM GlcN) was 78.3352 and 62.7379 and 46.4436 and 59.8798 and the “growth less than in the absence of GlcN” value (most SLI- and CR- lines, 2.5 mM GlcN, 72 h) was “approximately 40%”.

Reference: paper PMC11189555, “Aryl amino acetamides prevent Plasmodium falciparum ring development via targeting the lipid-transfer protein PfSTART1” (Nature Communications, 2024)
